Laboratory results published in US20190353647A1, “NOVEL REAL-TIME MULTIPLEXED, MULTI-COLOR BIOLUMINESCENCE RESONANCE ENERGY TRANSFER ASSAY, APPARATUS, AND USES THEREOF” (Universite de Bordeaux, priority 2016, published 2019).

Target: T1, TRPV1 (Homo sapiens, UniProt Q8NER1)
T1 construct: expressed in transfected cells; host or cells: HEK293T
Test: Intramolecular BRET assay, YFP-TRPV1-Luc probe in HEK293T cells
Format: cell-based
Details: for Effect on CAPS-induced BRET increase: intramolecular test
Description: They were referred as YFP and Luc for short in the rest of the manuscript. The cDNA of Luc and YFP were first cloned together using a three-piece ligation in the BamHI/XhoI site of pcDNA3.1(+) (Invitrogen, Carlsbad, Calif., USA), yielding two expression vectors pcDNA3.1 YFP-Luc where YFP was cloned in-fusion at the N-terminal of Luc, and pcDNA3.1 Luc-YFP where Luc was cloned in-fusion at the N-terminal of YFP. Both YFP and Luc were amplified by PCR from the pcDNA3-YFP-EPAC-Luc vector. Luc was cloned either at the N-terminal of YFP as a HindIII-EcoRI fragment (primers used: “Luc_HindIII_ATGN-term sense” and “Luc_no Stop_EcoRI_N-term antisense”) or at the COOH-terminal of YFP as an EcoRI-XhoI fragment (primer used: “Luc_EcoRI_ATG_C-term sense” and “Luc_XhoI_Stop_C-term antisense”). In parallel, YFP was cloned either at the N-terminal of Luc as a HindIII-EcoRI fragment (primers used: “YFP_HindIII_ATG_N-term sense” and “YFP_no Stop_EcoRI_N-term antisense”) or at the COOH-terminal of Luc as a EcoRI-XhoI fragment (primer used: “YFP_EcoRI_ATG_C-term sense” and “YFP_XhoI_Stop_C-term antisense”). The sequence joining Luc and YFP sequence encoded […] NO: 18) as a linker, and contained an AgeI restriction site. The YFP-hTRPV1-Luc expression vector was obtained by subcloning the human TRPV1 cDNA from the pDONR201-hTRPV1 vector (Harvard Medical School PlasmID Repository, clone HsCD00081472) as an EcoRI PCR fragment in the EcoRI site of the vector pcDNA3.1 YFP-Luc (primer used: “hTRPV1_EcoRI_Fus_Sense” and “hTRPV1_EcoRI_Fus_antisense”). The hTRPV1-Luc expression vector was obtained by subcloning the cDNA of hTRPV1 as a HindIII-EcoRI fragment in place of the YFP in the HindIII-EcoRI site of the pcDNA3.1 YFP-Luc vector (primer used: “hTRPV1_HindIII_ATG_Sense” and “hTRPV1_EcoRI_Fus_antisense”). The Luc-hTRPV3 expression vector was obtained by subcloning the cDNA of hTRPV3 (Harvard Medical School PlasmID Repository, clone HsCD00341603) as a AgeI-XhoI fragment in place of the YFP in the AgeI-XhoI sites of the pcDNA3.1 Luc-YFP vector (primer used: “hTRPV3_AgeI_ATG_Sense” and “[…]_XhoI_antisense”). The hTRPV4-Luc expression vector was obtained by subcloning the cDNA of hTRPV4 as a BamHI-AgeI fragment in place of the YFP in the BamHI-AgeI site of the pcDNA3.1 YFP-Luc vector (primer used: “hTRPV4_BamHI_ATG_Sense” and hTRPV4_AgeI_Fus_antisense”). In each case, the sequence joining the cDNA of interest and either Luc or YFP sequence encoded […] NO: 18) as a linker. HEK293T cells were maintained in Dulbecco's modified Eagle's medium-high Glucose (DMEM) (D6429, Sigma) supplemented with 10% fetal bovine serum, 100 units mL-1 penicillin and streptomycin. Twenty-four hours before transfection, cells were seeded at a density of 500,000 cells in 6-well dishes. Transient transfections were performed using polyethylenimine (PEI, linear, Mr 25,000; catalogue number 23966 Polysciences, Inc., Warrington, Pa., USA) with a PEI:DNA ratio of 4:1. […] The amount of transfected DNA was completed to a total of 2 μg with pcDNA3.1 empty vector. After overnight incubation, transfected cells were then detached, resuspended in DMEM w/o red phenol (Ref 21063-029, ThermoFisher scientific, Waltham, Mass., USA) and replated at a density of 10^5 cells per well in 96-well white plates with clear bottoms (Greiner Bio one, Courtaboeuf, France) pre-treated with D-polylysine (Sigma) for reading with the Tristar2 luminometer (Berthold Technologies, Bad Wildbad, Germany) or onto 12 mm diameter glass coverslips ([…], Braunschweig, Germany) treated with poly-L-lysine for the reading with the SpectraPro 2300i spectrometer (Acton Optics, Acton, Mass., USA). Cells were left in culture for 24 h before being processed for the BRET assay.

[1] = temperature rise from 25 to 42° C.

T1 sequence (Q8NER1 whole entry): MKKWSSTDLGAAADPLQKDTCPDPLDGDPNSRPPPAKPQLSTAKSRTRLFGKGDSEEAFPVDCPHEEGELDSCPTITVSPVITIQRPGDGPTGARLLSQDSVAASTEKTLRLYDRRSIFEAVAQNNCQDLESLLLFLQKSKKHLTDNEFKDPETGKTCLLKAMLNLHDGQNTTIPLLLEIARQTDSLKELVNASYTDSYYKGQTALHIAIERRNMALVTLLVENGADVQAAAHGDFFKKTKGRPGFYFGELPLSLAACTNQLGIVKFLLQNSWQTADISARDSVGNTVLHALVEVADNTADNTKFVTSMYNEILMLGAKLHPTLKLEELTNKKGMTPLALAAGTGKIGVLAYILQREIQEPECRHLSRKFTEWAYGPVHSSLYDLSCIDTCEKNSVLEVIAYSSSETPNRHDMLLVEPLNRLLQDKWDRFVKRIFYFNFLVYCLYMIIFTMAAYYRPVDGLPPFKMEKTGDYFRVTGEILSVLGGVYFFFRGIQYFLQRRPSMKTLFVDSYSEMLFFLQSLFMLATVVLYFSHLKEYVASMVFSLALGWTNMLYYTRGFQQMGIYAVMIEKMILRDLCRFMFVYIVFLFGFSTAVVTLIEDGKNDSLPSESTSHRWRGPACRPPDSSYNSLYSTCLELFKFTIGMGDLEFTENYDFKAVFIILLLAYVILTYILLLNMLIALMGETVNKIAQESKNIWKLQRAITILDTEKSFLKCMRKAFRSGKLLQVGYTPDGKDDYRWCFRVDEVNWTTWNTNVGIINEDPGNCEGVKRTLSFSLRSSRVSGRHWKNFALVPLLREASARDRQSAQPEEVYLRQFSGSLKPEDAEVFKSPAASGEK

Structure (SMILES)	Effect on CAPS-induced BRET increase	Change of basal BRET signal	Change in CAPS potency on temperature rise [1]	Change in maximal efficacy on temperature rise [1]	Temperature-dependent behaviour of the probe after preincubation (heating 25 to 50° C.)
CC(=O)Nc1nc2c(Oc3cc(-c4ccc(C(F)(F)F)cc4)ncn3)cccc2s1 [AMG517]	inhibited	–	–	–	–
COc1cc(CNC(=O)CCCC/C=C/C(C)C)ccc1O [CAPS, Capsaicin]	–	increased with a first order kinetic	leftward shift	increase	–
Oc1cc2c(cc1O)CN(C(=S)NCCc1ccc(Cl)cc1)CCC2 [CPZ, Capsazepine]	inhibited	–	–	–	completely modified the temperature-dependent behaviour
